According to patent publication EP1332756A2, “Compositions and methods for restoring a normal pattern of imprinting to cells” (priority 1996, dated 1998):
Like-named read-outs stand apart in the source and are kept apart here.

Key:
[1] = test system: cancer cells; assay: Hollow fiber assay of in vivo cytotoxic effects; conditions: threshold for referral for xenograft testing
Excerpt: The compounds were additionally tested for their in vivo cytotoxic effects on cancer cells, using a hollow fiber assay as described in Hollingshead et al. (1995) Life Sci. 57:131-141, herein incorporated by reference. […] Thus, several new potential effective chemotherapeutics were identified for tumors and/or doses not taught in the literature.

[2] = test system: tumor cells with LOI; assay: In vitro effect of NCI lead compounds on LOI (allele ratio), saline as negative control; format: cell-based; conditions: for effective concentration / Allele ratio 1.0=complete LOI: in vitro; for Allele ratio 1.0=complete LOI: at the effective concentration, saline 1.0
Method: Based on the results showing that 5-aza-2'-deoxycytidine can restore normal imprinting to tumor cells with LOI, an analysis was performed using the drug discovery program described in Weinstein et al. (1997) Science 275:343-349, herein incorporated by reference. […] The highest correlations were as follows: 127716, 619003, 626883, 624646, 145118, 1850512, 626884, 626886, 622810, 176889, 622616, 620358, 619948, 622461, 624645, 15309, 638737, 294734, 112152, 153174 204816, 79037, 628082, 620319 (NCI reference numbers). These are considered lead compounds to determine whether they will restore normal imprinting or could be chemically modified to do so.
As a first test of this approach, the in vitro effect of 12 of these compounds were analyzed with saline as a negative control.

[3] = test system: Cells having LOI, (Group A); assay: NCI database search for compounds effective against cell lines with LOI (Group A) but not those without LOI (Group B); conditions: lead compounds still to be tested
[4] = test system: H19; assay: Quantitative H19 expression in tumor cells with LOI (Northern blot, PhosphorImager); format: cell-based; conditions: Homo sapiens, 24 h, read-out: increase in H19 expression
Method: (§1) Cell Culture and Treatment With 5-azaCdR. JEG-3 human choriocarcinoma and COLO-205 human colon adenocarcinoma cell lines were obtained from ATTC. Cells were cultured in RPMI 1640, 10% fetal calf serum, 5% CO2, with antibiotics. 10^4-10^5 cells in 6 cm dishes were treated with 0.3-10 µM 5-azaCdR for 24 hours. Cultures were washed in Hank's buffered saline solution and grown to confluence. Concentrations of 0.3-3.0 µM caused minimal cytotoxicity (0-30%).
Analysis of Gene Expression. For quantitative analysis of gene expression, total RNA was isolated as described (Chomczynski, P. and Sacchi, N. (1987) Anal. Biochem. 162:156-159), and 10 µg was electrophoresed in 1.2% agarose gels containing formaldehyde, and was transferred to Hybond-N + membranes (Amersham) and hybridized as described with H19 and IGF2 probes (Steenrnan et al. (1994) Nature Genet. 7:433-439). Hybridization with GAPDH was used as a control for RNA loading. For analysis of allele-specific expression, 0.5 µg RNA was treated with DNase I (Boehringer Mannheim), heated to 95°C for 7 minutes, and RT-PCR was performed as described for both IGF2 and H19 (Rainier et al. (1993) Nature 362:747-749), although nested PCR using primers HP1 and HP2 (Hashimoto et al. (1995) Nat. Genet. 9:109-110) was performed for H19 analysis. PCR products were digested with either Apa I (for IGF2 analysis) or Alu I (for H19 analysis) as described (Tadokoro et al. (1991) Nucleic Acids Res. 19:6967), and electrophoresed on 4% Nusieve-agarose (3:1) gels. Each sample was analyzed in duplicate in the presence and absence of reverse transcriptase to exclude DNA contamination. Gels were blotted and hybridized with a ^32P-labeled internal specific oligonucleotide probe (Rainier et al. (1993) Nature 362:747-749), and quantified with a PhosphorImager (Molecular Dynamics).

[5] = test system: IGF2; assay: IGF2 methylation after 5-azaCdR treatment; format: cell-based, human; conditions: data not shown
Method: (§2) Analysis of DNA Methylation. For quantitative analysis of DNA methylation, genomic DNA was prepared as described (Rainier et al. (1993) Nature 362:747-749), and Southern analysis of methylation of the H19 promoter CpG island was performed as described (Reik et al. (1994) Hum. Mol. Genet. 4:2379-2385). Filters were hybridized with the 1.8 kb Pst I fragment of H19, which detects imprint-specific methylation (Steenman et al. (1994) Nature Genet. 7:433-439). For analysis of allele-specific methylation, 1 µg DNA was digested with BamH I or with BamH I plus Hpa

[6] = test system: IGF2; conditions: normal human brain cells (Hu et al.); cited from earlier work
[7] = test system: IGF2; assay: Allele-specific expression of IGF2 in tumor cells with LOI (RT-PCR, Apa I digestion); format: cell-based, human
Method: as §1
(§3) Analysis of Gene Expression. For quantitative analysis of gene expression, total RNA was isolated as described (Chomczynski, P. and Sacchi, N. (1987) Anal. Biochem. 162:156-159), and 10 µg was electrophoresed in 1.2% agarose gels containing formaldehyde, and was transferred to Hybond-N + membranes (Amersham) and hybridized as described with H19 and IGF2 probes (Steenrnan et al. (1994) Nature Genet. 7:433-439). Hybridization with GAPDH was used as a control for RNA loading. […] Each sample was analyzed in duplicate in the presence and absence of reverse transcriptase to exclude DNA contamination. Gels were blotted and hybridized with a ^32P-labeled internal specific oligonucleotide probe (Rainier et al. (1993) Nature 362:747-749), and quantified with a PhosphorImager (Molecular Dynamics).

[8] = test system: IGF2; conditions: mouse cells with maternal disomy for chromosome 7 (Eversole-Cire et al.); cited from earlier work
[9] = test system: H19; assay: Allele-specific expression of H19 in tumor cells with LOI (RT-PCR, Alu I digestion); format: cell-based, human; conditions: JEG-3 cells
Method: as §1, §3

[10] = test system: H19 promoter CpG island; assay: Southern analysis of methylation of the H19 promoter CpG island (Pst I and Sma I); format: cell-based, human
Method: as §2
In order to determine whether treatment with 5-azaCdR altered methylation of this imprint-specific region, cells were digested with Pst I and Sma I, as described (Reik et al. (1994) Hum. Mol. Genet. 3:1297-1301). Normal cells show approximately 50% methylation, since the paternal allele is methylated and the maternal allele is unmethylated (Steenman et al. (1994) Nature Genet. 7:433-439; Moulton et al. (1994) Nature Genet. 7:440-447; Reik et al. (1994) Hum. Mol. Genet. 3:1297-1301). Cells with LOI show increased methylation, reflecting abnormal methylation of the maternal allele (Steenman et al. (1994) Nature Genet. 7:433-439; Moulton et al. (1994) Nature Genet. 7:440-447; Reik et al. (1994) Hum. Mol. Genet. 3:1297-1301). […]

[11] = test system: H19; assay: Allele-specific methylation of H19 (Hpa II digestion, PCR, Alu I); format: cell-based, human; conditions: Hpa II digestion before PCR (Fig. 2B)
Method: as §2
After digestion, enzymes were inactivated by heating to 100° for 10 min. 50 ng digested DNA was added to the PCR reaction mix in Buffer F (Invitrogen), containing primers HP1 (5'-TACAACC-ACTGCACTACCTG-3') and H3 (5'-[…]-3') (Hashimoto et al. (1995) Nat. Genet. 9:109-110). One initial cycle (94°C, 4 min.) was followed by 28 cycles of 94°C, 1 min., 60°C, 1 min., 72° C, 1 min. PCR products (227 bp) were digested with Alu I, electrophoresed on 3% Nusieve/1% agarose gels, transferred to Hybond-N+ membranes (Arnersham), and hybridized with an internal oligonucleotide probe HP2 (5'-[…]-3'), and then quantified with a PhosphorImager (Molecular Dynamics). […]

[12] = Cytotoxicity of 24 hour 5-azaCdR treatment in cell culture; format: cell-based; conditions: human, jeg-3 and colo-205 cells, Concentrations of 0.3-3.0 µM
Method: as §1

Row | Molecule | total effectiveness score > 20 or an in vivo cell kill effect seen directly [1] | effective concentration [2] | Allele ratio 1.0=complete LOI [2] | also measured
1 | C/C=C1/C(=O)O[C@]23C=C[C@@H]4C(C(=O)OC)=CO[C@H](O[C@@H]12)[C@@H]43 [compound 112152, plumericine] | scored above the threshold for referral for xenograft testing | 10^-3M | 1.2 | –
2 | O=C1ON(Cc2ccccc2)C(c2ccccc2)N1c1ccccc1 (stereo not drawn) [compound 624645] | – | 10^-4M | 1.8 | –
3 | gndimacrin [252940-S] | – | – | – | Predicted concentration [3]: 10^-4M
4 | C#CC[C@@]12CC(=O)C[C@@H]1CCC1(C2)OCCO1.C#CC[C@]12CC(=O)CC[C@H]1CC(=O)C2 [compound 619948] | – | 10^-4M | 1.8 | –
5 | CC(C)/C(Cl)=N\OC(=O)NNc1ccccc1 [compound 682841] | – | – | – | Predicted concentration [3]: 10^-4M
6 | Nc1ncn([C@H]2C[C@H](O)[C@@H](CO)O2)c(=O)n1 [5-azaCdR, 5-aza-2'-deoxycytidine] | scored above the threshold for referral for xenograft testing | – | – | fold induction at 1 µM ([4]; COLO-205 cells, 1.0 µM (data not shown)): 20; fold induction at 0.3 µM ([4]; JEG-3 cells, 0.3 µM): 30; fold induction at 1 µM ([4]; JEG-3 cells, 1.0 µM): 50; IGF2 methylation [5]: not affected; allelic expression of IGF2 [6]: switched IGF2 from a pattern of preferential expression of one allele to equal biallelic expression; allelic expression of IGF2 ([7]; COLO-205 colorectal carcinoma cells (data not shown)): a switch from biallelic to predominately monoallelic expression of IGF2; allelic expression of IGF2 ([7]; JEG-3 cells, single 24 hr treatment with increasing doses (0.3, 0.6, 1.0 µM)): unequal expression of the two IGF2 alleles, with preferential expression of the allele lacking the Apa I polymorphic site; expression of the maternal IGF2 gene [8]: epigenetic activation of the normally silent maternal IGF2 gene; allele-specific expression of H19 [9]: monoallelic expression of the allele containing the Alu I polymorphic site; changes in DNA methylation of the H19 CpG island ([10]; COLO-205 (data not shown)): reproducible; methylation of the H19 CpG island ([10]; after treatment with 0.3 or 1.0 µM (Fig. 2A), normal cells approximately 50%): approximately 50%; allele specificity of altered H19 methylation [11]: one allele was preferentially affected; cytotoxicity at 24 h [12]: 0 to 30%
7 | CC1=CC(=O)C(C)=CC1=O [compound 15309, phlorone] | scored above the threshold for referral for xenograft testing | 10^-3M | 1.3 | –
8 | Methyl-13-hydroxy-15-oxokaurenoate [compound 620358] | scored above the threshold for referral for xenograft testing | 10^-4M | 2.6 | alteration in imprinting and/or cytotoxic effects ([2]; additional drugs tested): at least some alteration in imprinting and/or cytotoxic effects
9 | Blue Platinum uracil [compound 180512] | – | 10^-2M | 45.0 | alteration in imprinting and/or cytotoxic effects [2]: at least some alteration in imprinting and/or cytotoxic effects
10 | cis-CCNU [compound 153174] | – | 10^-4M | 1.6 | –
11 | Nc1ccccc1 [compound 176889, benzenamine] | – | – | 3.7 | alteration in imprinting and/or cytotoxic effects ([2]; additional drugs tested): at least some alteration in imprinting and/or cytotoxic effects
12 | lankacyclin [compound 145118] | – | 10^-4M | 1.8 | alteration in imprinting and/or cytotoxic effects ([2]; additional drugs tested): at least some alteration in imprinting and/or cytotoxic effects
13 | COc1nc(NC2OC(CO)C(O)C(O)C2O)c(N)c(=O)[nH]1 (stereo not drawn) [compound 624646] | scored above the threshold for referral for xenograft testing | 10^-4M | 2.2 | –
14 | aspiculamycin HCL [200692-A] | – | – | – | Predicted concentration [3]: 10^-2M
15 | CC(=O)O[C@@H]1[C@@H](C)/C=C/C(C)(C)[C@H](OC(C)=O)C[C@@H](OC(C)=O)/C(C)=C/[C@H]2[C@@H](OC(=O)c3ccccc3)[C@@H](C)C[C@]12OC(C)=O [compound 666860, euphornin D] | – | – | – | Predicted concentration [3]: 10^-4M
